Data as given in US11311560B2, “Cyclic plasmenylethanolamines” (MED-LIFE DISCOVERIES LP, priority 2017, dated 2022).
“And” between values parts separate entries of the source, which are not always exact repeats. Identical values can stand only once. “Also recorded” adds a separate entry of the source.

Tests used:
[1] = In vitro acid stability (pH 1-5, one hour, FI-MS/MS); format: physicochemical
Experimental: To test the ability of the vinyl ether in PPI-1040 to withstand the acidic nature of the stomach the compound was exposed to a range of acid strengths (pH 1-5). The stability of the vinyl bond was tested by exposing PPI-1040 (formulated as indicated above) to a pH range from 1-5. The pH solutions were made by serial 10-fold dilutions of 1M HCL in HPLC grade water until pH 4 is reached. Pure HPLC grade water was used as the control solution. The final dilution was completed by added a 20 μl aliquot to 200 μl of the PPI-1040 formulation resulting in a pH range from 1-5 (each condition was tested in triplicate). The mixture was vortexed at room temperature for one hour. Following the one hour incubation each solution was re-suspended in ethyl acetate to obtain 10 μl/ml solution which was analyzed using flow injection tandem mass spectrometry (FI-MS/MS) on a API4000™ mass spectrometer (Applied Biosystems) coupled with Agilent 1100 HPLC pump and auto sampler.

[2] = tested on: wild-type mouse hippocampal brain slices; test: Long term potentiation (LTP) on multi-electrode array; format: cell-based; details: 0.5 μM, monitored for 60 mins, vs vehicle (0.2% DMSO)
Experimental: It is hypothesized that brain plasmalogen levels affect neurotransmission. Accordingly, in this study, wild-type mouse hippocampal brain slices were incubated in artificial cerebro-spinal fluid containing either vehicle or PPI-1040. The slices were incubated on a multi-electrode array (MEA) with electrodes spaced 100 μm apart. A single electrode was selected to stimulate Schaffer collaterals cells which triggered field excitatory post-synaptic potential (fEPSP) in the stratum radiatum. After 10 minutes of control recording, in the presences of either PPI-1040 or vehicle, long term potentiation (LTP) was induced by a single train of 10 bursts composed of 4 stimuli at 100 Hz each with a 200 millisecond interval between.

Pex7 hypomorph/null mice = test: 4 weeks oral treatment of Pex7 hypomorph/null animals: plasmalogen levels in plasma and tissues; format: in vivo, mouse; details: 50 mg/kg oral gavage, 5 days per week
Text: The Pex7 hypomorph/null model is a hypomorphic (B6;129S6-Pex7^tm2.3Brav/s9) mouse model on a mixed background (C57BL/6NCrl and 129S6/SvEvTac). The hypomorphic allele in Pex7 hypomorph/null was generated by inserting an inverse neo cassette into intron 2 and lox P sites surrounding exon 3. The Pex7 null allele was generated using (B6.C-Tg(cmv-cre)1Cgn/J) mouse. The Pex7 hypomorph/null mouse model has 90% survival, 0.016-0.257% of wild type Pex7 mRNA levels and 20-30% plasmalogen levels Pex7 hypomoprh/null mice (3-4 months); and wild-type animals, males and females included in treatments and behavioral tests. Pex7 hypomorph/null mice were randomly assigned, after a baseline open field test, into 3 treatment groups: PPI-1040, PPI-1011, and vehicle controls, n=6 mice per group). PPI-1011 or PPI-1040 at 50 mg/kg was given by oral gavage 5 days per week (Monday-Friday) for 4 weeks. During the treatment period, animals were weighed weekly and observed for signs of distress. The open field test was performed at the end of treatment. To avoid selection bias, data analysis was performed only at the study end. Animals were sacrificed after a 24-hour post the last dose.
Tissue samples frozen by submersion in liquid nitrogen were homogenized using the Covaris Cryoprep resulting in a fine powder. The powder was then aliquoted using anti-static polypropylene disposable milligram scoops (TWD Tradewinds) resulting in 4-6 mg of tissue per 1.4 ml Thermo matrix tubes. Weights were recorded and metabolite levels were normalized per mg of tissue. HPLC grade water (50 μl) was added into each tube and samples were snap frozen in liquid nitrogen and then stored at −80° C. until extraction. On the day of the extraction, tissue samples were thawed to room temperate and sonicated for 15 mins in an ice bath before mixing at 2000 rpm for a 5 minute and then adding 600 μL of ethyl acetate. Lipids were extracted into ethyl acetate by mixing at 1750 rpm for 1 hr followed by a 10 min centrifugation at 3500 rpm to obtain a clear ethyl acetate layer. Tissue lipid extracts were diluted into an ethyl acetate stock (brain regions diluted 1:10, peripheral tissues 1:5) containing labeled internal standard [^13C-PlsEtn (C37^13C6H74NO7P). Water (40 μL) was added to the diluted extracts and samples were stirred at 1500 rpm for 1 hr followed by a 2 min centrifugation at 3500 rpm.
Plasma extraction was performed on 20 μL aliquots in 1.4 ml Thermo matrix tubes. Lipids were extracted by adding HPLC grade water (50 μl) and ethyl acetate containing labeled internal standard [^13C-PlsEtn (C37^13C6H74NO7P) at 0.2 μg/mL (500 μL) to each plasma sample and then mixing at 1750 rpm for 1 hr followed by a 2 min centrifugation at 3500 rpm for phase separation.
A 100 μL aliquot of the ethyl acetate layer was analyzed using FI-MS/MS on a API4000™ mass spectrometer (Applied Biosystems) coupled with Agilent 1100 HPLC pump and auto sampler. Each transition was scanned for 50 ms with a total acquisition time per sample of 2 min. ethyl acetate:methanol:water ratio of 80:15:5 at a flow rate of 600 μL/min was used as the mobile phase. All standards and stable isotopes used were >95% pure and manufactured by Med-Life Discoveries LP. All the solvents used above were HPLC grade. All samples were analyzed in triplicate to control for any variation resulting from instrument variability. Stable isotope ratios for each analyte were calculated for all tissue and plasma samples (Table 2).

cleavage of the sn-1 vinyl-ether bond (loss of sn-1 group) ([1]; control and pH 3-5, one hour): minimal loss of the sn-1 group
stability of open ring form (PlsEtn 16:0/22:6) ([1]; pH 1, one hour): very little being detected
stability of open ring form (PlsEtn 16:0/22:6) ([1]; pH 2, one hour): slight reduction
SMILES: CC/C=C\C/C=C\C/C=C\C/C=C\C/C=C\C/C=C\CCC(=O)OC(CO/C=C\CCCCCCCCCCCCCC)COP1(=O)NCCO1 (centres unmarked) [PPI-1040, 1-(((Z)-hexadec-1-en-1-yl)oxy)-3-((2-oxido-1,3,2-oxazaphospholidin-2-yl)oxy)propan-2-yl (4Z,7Z,10Z,13Z,16Z,19Z)-docosa-4,7,10,13,16,19-hexaenoate]
level of the cyclized (closed ring) form after incubation ([1]; aqueous control and pH 1-5, one hour, room temperature): almost undetectable in all samples; also recorded: minimal intact PPI-1040 being observed
cleavage of the sn-1 vinyl-ether bond (loss of sn-1 group) ([1]; pH 1, one hour): overall degradation of the molecule; also recorded: largely degraded
cleavage of the sn-1 vinyl-ether bond (loss of sn-1 group) ([1]; pH 2, one hour): cleavage of the vinyl group is prevalent; also recorded: observed beginning at pH2
long term potentiation (LTP) of fEPSP [2]: increased LTP compared to vehicle treated controls
cerebellum tissue plasmalogen levels (Pex7 hypomorph/null mice): did not show augmentation
cortical tissue plasmalogen levels (Pex7 hypomorph/null mice): did not show augmentation
kidney plasmalogen levels (Pex7 hypomorph/null mice): did not display a clear augmentation in any plasmalogen species; also recorded: did not display a significant level of augmentation in any plasmalogen species
liver plasmalogen levels (Pex7 hypomorph/null mice): increases in 16:0/18:1, 16:0/18:2 and 16:0/22:6 species reaching statistical significance and 16:0/18:1. 16:0/18:2
lung plasmalogen levels (Pex7 hypomorph/null mice): did not display a clear augmentation in any plasmalogen species; also recorded: did not display a significant level of augmentation in any plasmalogen species
plasma level of the target 16:0/22:6 plasmalogen (Pex7 hypomorph/null mice): normalizing the levels of the target 16:0/22:6 plasmalogen
plasma levels of other 16:0 plasmalogens (re-organization at sn-2) (Pex7 hypomorph/null mice): increases in all measured 16:0 plasmalogens with the exception of 16:0/22:4; also recorded: increases in all 16:0 plasmalogens measured except 16:0/22:4
plasma plasmalogen levels (all species measured) (Pex7 hypomorph/null mice): able to augment plasmalogen levels; also recorded: did effectively augment plasmalogen levels
plasma plasmalogens containing 18:0 and 18:1 at sn-1 (Pex7 hypomorph/null mice): no augmentation was observed in any of those species
plasmalogen levels in tissues (peripheral and brain) (Pex7 hypomorph/null mice): augmentation observed in the liver, skeletal muscle and small intestine
skeletal muscle plasmalogen levels (Pex7 hypomorph/null mice): 16:0/20:5, 16:0/22:6 and total 16:0 plasmalogen pool levels statistically increased
small intestine plasmalogen levels (Pex7 hypomorph/null mice): 16:0/18:1 and 16:0/18:2 species reaching a statistically significant increase and only 16:0/18:1 and 16:0/18:2 reached significance
vinyl-acyl and alkyl-acyl glycerol levels (Pex7 hypomorph/null mice): None of the alkyl-acyl or vinyl-acyl glycerol species measured were increased
